Source: patent US20130345199A1, “1-[M-CARBOXAMIDO(HETERO)ARYL-METHYL]-PIPERIDINE-4-CARBOXAMIDE DERIVATIVES” (Actelion Pharmaceuticals Ltd., priority 2012, published 2013)
Values belong to the compound of their own block, whether it stands above or below them.

Target: T1, CXCR7 (Homo sapiens, UniProt P25106)
T1 construct: host or cells: CHO-K1 (PathHunter CXCR7 b-arrestin cell line, stably transfected)
Assay: PathHunter CHO-K1 CXCR7 b-arrestin assay (agonistic activity)
Assay type: cell-based
Conditions: PathHunter CHO-K1 CXCR7 b-arrestin cell line, 90 minutes at 37° C.
Method: The […] receptor and CXCR7 agonistic activities of the compounds of formula (I) are determined in accordance with the following experimental method.
The assay is using the PathHunter™ CHO-K1 CXCR7 b-arrestin cell line from DiscoverX. The system is based on the Enzyme Fragment Complementation Technology. Two complementing fragments of the b-galactosidase enzyme are expressed within stably transfected cells. The larger portion of b-gal, termed EA for Enzyme Acceptor, is fused to the C-terminus of b-arrestin 2. The smaller fragment, termed ProLink™ tag, is fused to CXCR7 at the C-terminus. Upon activation, b-arrestin is recruited which forces the interaction of ProLink and EA, allowing complementation of the two fragments of b-gal and the formation of a functional enzyme which is capable of hydrolysing the substrate and generating a chemiluminescent signal.
CHO-K1 CXCR7 b-arrestin cells are detached from culture dishes with a cell dissociation buffer (Invitrogen, #13151-014) and collected in growing medium (F12HAMS 90% (v/v)/FCS 10% (v/v), Penicilin/streptomycin 1% (v/v)). 5000 cells per well (in 20 μl) are seeded in a 384 well plate (white-walled, clear bottom; BD Falcon #353274). The plate is incubated at 37° C./5% CO2 for 24 hours. Medium is then replaced by […] (Invitrogen #31985) for 3 to 4 hours. Test compounds are dissolved at 10 mM in DMSO and serially diluted in DMSO to 200× of the final concentration for dose response curves. Compounds are then diluted 1:33.3 in HBSS1X. 5 μl/well of HBSS1X/20 mM HEPES/0.2% BSA are added to the assay plate followed by addition of 5 μl/well of diluted compounds. CXCL12 (Peprotech #300-28A) may be used as a reference agonist. The plate is incubated for 90 minutes at 37° C. 12 μl of detection reagent (Path Hunter Detection Kit, DiscoveRx, #93-0001) is transferred to the assay plate and to the plate is incubated for 1 hour at room temperature. Luminescent signal is read in a microplate reader (FLUOstar Optima, bmg). The calculated EC50 values may fluctuate depending on the daily cellular assay performance. Fluctuations of this kind are known to those skilled in the art.

T1 sequence (P25106 whole entry): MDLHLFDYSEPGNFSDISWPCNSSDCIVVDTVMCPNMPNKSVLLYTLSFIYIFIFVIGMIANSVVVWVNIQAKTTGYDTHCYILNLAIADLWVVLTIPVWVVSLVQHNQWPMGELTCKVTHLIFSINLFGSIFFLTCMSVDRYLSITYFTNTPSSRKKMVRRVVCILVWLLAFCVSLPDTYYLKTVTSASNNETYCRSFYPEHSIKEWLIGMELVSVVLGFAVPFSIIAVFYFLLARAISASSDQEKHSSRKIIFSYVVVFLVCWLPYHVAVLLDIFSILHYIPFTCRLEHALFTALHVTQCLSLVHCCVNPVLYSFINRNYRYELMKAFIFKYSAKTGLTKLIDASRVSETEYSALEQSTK

Structure (SMILES): Cc1cncc(C(=O)Nc2cccc(CN3CCC(C)(C(=O)NC(C)(C)C)CC3)c2)c1 [Example 4.004, N-[3-(4-tert-Butylcarbamoyl-4-methyl-piperidin-1-ylmethyl)-phenyl]-5-methyl-nicotinamide]
EC50: 59 nM

Structure (SMILES): O=C(Nc1cccc(CN2CCC(C(=O)NCc3ccccc3)CC2)c1)c1cccs1 [Example 2.076]
EC50: 780 nM

Structure (SMILES): O=C(Nc1cccc(CN2CCC(C(=O)NCc3cccc(Cl)c3)CC2)c1)c1ccc(Cl)cc1 [Example 2.027]
EC50: 442 nM

Structure (SMILES): Cc1cncc(C(=O)Nc2cccc(CN3CCCC(C(=O)NCC4CC4)CC3)c2)c1 (racemic) [Example 2.084]
EC50: 304 nM

Structure (SMILES): Cc1cncc(C(=O)Nc2cccc(CN3CCC(C(=O)NC(C)C)CC3)c2)c1 [Example 2.038]
EC50: 12 nM

Structure (SMILES): Cc1cncc(C(=O)Nc2cccc(CN3CCC(F)(C(=O)NC(C)(C)C)CC3)c2)c1 [Example 4.002, N-[3-(4-tert-Butylcarbamoyl-4-fluoro-piperidin-1-ylmethyl)-phenyl]-5-methyl-nicotinamide]
EC50: 16 nM

Structure (SMILES): O=C(Nc1cccc(CN2CCC(C(=O)NC3CCCCC3)CC2)c1)c1cccs1 [Example 2.075]
EC50: 7 nM

Structure (SMILES): O=C(Nc1cccc(CN2CCC(C(=O)NCc3ccccn3)CC2)c1)c1ccc(Cl)cc1 [Example 2.022]
EC50: 20 nM

Structure (SMILES): Cc1cncc(C(=O)Nc2cccc(CN3CCC(C(=O)N(C)CC(C)C)CC3)c2)c1 [Example 2.057]
EC50: 8 nM

Structure (SMILES): CCCCCCN(C)C(=O)C1CCN(Cc2cccc(NC(=O)c3cccc(C(F)(F)F)n3)c2)CC1 [Example 2.079]
EC50: 226 nM

Structure (SMILES): O=C(Nc1ccc(F)c(CN2CCC(C(=O)NC3CCCCC3)CC2)c1)c1cccc(C(F)(F)F)n1 [Example 4.016, 6-Trifluoromethyl-pyridine-2-carboxylic acid [3-(4-cyclohexylcarbamoyl-piperidin-1-ylmethyl)-4-fluoro-phenyl]-amide]
EC50: 3 nM

Structure (SMILES): O=C(Nc1cccc(CN2CCC(C(=O)NC3CCCCC3)CC2)c1)c1ccc(F)c[n+]1[O-] [Example 4.005, 5-Fluoro-1-oxy-pyridine-2-carboxylic acid [3-(4-cyclohexylcarbamoyl-piperidin-1-ylmethyl)-phenyl]-amide]
EC50: 4 nM

EC50: 5 nM
Structure (SMILES): O=C(NC1CCCCC1)C1CCN(Cc2cccc(NC(=O)[C@@H]3C[C@@H]4CC[C@H]3C4)c2)CC1 (racemic) [Example 1.018, Rac-1-{3-[((1S,2R,4R)-Bicyclo[2.2.1]heptane-2-carbonyl)-amino]-benzyl}-piperidine-4-carboxylic acid cyclohexylamide]

Structure (SMILES): COc1ccc(CNC(=O)C2CCN(Cc3cccc(NC(=O)c4ccc(Cl)cc4)c3)CC2)cc1 [Example 2.030]
EC50: 832 nM

Structure (SMILES): O=C(Nc1cccc(CN2CCC(C(=O)NC3CCCC3)CC2)c1)c1ccc(Cl)cc1 [Example 2.001, 1-[3-(4-Chloro-benzoylamino)-benzyl]-piperidine-4-carboxylic acid cyclopentylamide]
EC50: 0.9 nM

Structure (SMILES): O=C(Nc1cncc(CN2CCC(C(=O)NC3CCCCC3)CC2)c1)c1ccc(F)cc1 [Example 3.005, 1-[5-(4-Fluoro-benzoylamino)-pyridin-3-ylmethyl]-piperidine-4-carboxylic acid cyclohexylamide]
EC50: 57 nM

Structure (SMILES): CC(C)CCNC(=O)C1CCN(Cc2cccc(NC(=O)c3cccc(C(F)(F)F)n3)c2)CC1 [Example 2.081]
EC50: 5 nM

Structure (SMILES): CC(C)CNC(=O)C1CCN(Cc2cccc(NC(=O)c3cccc(C(F)(F)F)n3)c2)CC1 [Example 2.071]
EC50: 2 nM

Structure (SMILES): CC(C)(C)NC(=O)C1CCN(Cc2cc(NC(=O)c3cccc(C(F)(F)F)n3)ccc2F)CC1 [Example 4.017, 6-Trifluoromethyl-pyridine-2-carboxylic acid [3-(4-tert-butylcarbamoyl-piperidin-1-ylmethyl)-4-fluoro-phenyl]-amide]
EC50: 2 nM

Structure (SMILES): Cc1cncc(C(=O)Nc2cccc(CN3CCC(C(=O)N(C)C)CC3)c2)c1 [Example 2.055]
EC50: 60 nM

Structure (SMILES): O=C(Nc1cccc(CN2CCC(C(=O)NCc3ccc(Cl)cc3)CC2)c1)c1ccc(Cl)cc1 [Example 2.029]
EC50: 433 nM

Structure (SMILES): O=C(Nc1cccc(CN2CCC(C(=O)NCC3CCCCC3)CC2)c1)c1ccc(Cl)cc1 [Example 2.015]
EC50: 46 nM

Structure (SMILES): O=C(Nc1cccc(CN2CCC(C(=O)NC3Cc4ccccc4C3)CC2)c1)c1ccc(Cl)cc1 [Example 2.033]
EC50: 9 nM

Structure (SMILES): CN(C)C(=O)C1CCN(Cc2cccc(NC(=O)c3cccs3)c2)CC1 [Example 2.073]
EC50: 155 nM

Structure (SMILES): COC(C)CNC(=O)C1CCN(Cc2cccc(NC(=O)c3cccc(C(F)(F)F)n3)c2)CC1 (stereo not drawn) [Example 2.093]
EC50: 6 nM

Structure (SMILES): Cc1cncc(C(=O)Nc2cccc(CN3CCC(C(=O)NC(C)(C)C)CC3)c2)c1 [Example 2.039]
EC50: 3 nM

Structure (SMILES): O=C(Nc1cccc(CN2CCC(C(=O)NCc3cccnc3)CC2)c1)c1ccc(Cl)cc1 [Example 2.023]
EC50: 162 nM

Structure (SMILES): Cc1cncc(C(=O)Nc2cccc(CN3CCC(C(=O)N4C(C)CCC4C)CC3)c2)c1 (stereo not drawn) [Example 2.051]
EC50: 96 nM

Structure (SMILES): COc1cncc(C(=O)Nc2cccc(CN3CCC(C(=O)NC4CCCCC4)CC3)c2)c1 [Example 4.012, N-[3-(4-Cyclohexylcarbamoyl-piperidin-1-ylmethyl)-phenyl]-5-methoxy-nicotinamide]
EC50: 10 nM

Structure (SMILES): CC(C)(C)NC(=O)C1CCN(Cc2cc(NC(=O)Cc3ccccc3Cl)cs2)CC1 [Example 3.011, 1-{4-[2-(2-Chloro-phenyl)-acetylamino]-thiophen-2-ylmethyl}-piperidine-4-carboxylic acid tert-butylamide]
EC50: 28 nM

Structure (SMILES): Cc1cncc(C(=O)Nc2ccc(F)c(CN3CCC(C(=O)NC(C)(C)C)CC3)c2)c1 [Example 4.019, N-[3-(4-tert-Butylcarbamoyl-piperidin-1-ylmethyl)-4-fluoro-phenyl]-5-methyl-nicotinamide]
EC50: 8 nM

Structure (SMILES): CC(C)(C)NC(=O)C1(C)CCN(Cc2cccc(NC(=O)c3cccc(C(F)(F)F)n3)c2)CC1 [Example 4.011, 6-Trifluoromethyl-pyridine-2-carboxylic acid [3-(4-tert-butylcarbamoyl-4-methyl-piperidin-1-ylmethyl)-phenyl]-amide]
EC50: 13 nM

Structure (SMILES): CCC(C)(C)NC(=O)C1CCN(Cc2cccc(NC(=O)c3cncc(C)c3)c2)CC1 [Example 2.059]
EC50: 3 nM
